Here are results for two compounds from patent publication US10723726B2, “Solid forms of (Z)-4-(5-((3-benzyl-4-oxo-2-thioxothiazolidin-5-ylidene)methyl)furan-2-yl)benzoic acid” (GB006, INC., priority 2015, dated 2020).

Counter-ions that a name gives are not always drawn.

Data set [1] is described as follows: Aqueous solubility by equilibration, HPLC analysis. It counts as physicochemical. Conditions: for Aq solub: water, ambient temperature, slurried 4-5 days, corrected for weight of counter-ion. Here is the method: An aliquot of the UHQ water test solvent (1 mL) was added to an accurately weighed sample of the LA1 salts and agitated at ambient temperature for a period of 4 days. A sample was withdrawn, filtered through a […], and analyzed by HPLC. HPLC was used to determine aqueous equilibrium solubility at ambient temperature. […] Samples were slurried in water for 4-5 days before analysis.

The nature of another data set: in vivo. Conditions: male, beagle. Here is the method:
The PO (2 mg/kg) dose solution of micronized LA1 was prepared in 0.1% Tween-80 0.5% (w/v) and methyl cellulose in water.
The objective of the study was to investigate the preclinical pharmacokinetic profile of LA1 (micronized powder) in Beagle dog. To delineate the plasma concentration vs. time curve and characterize the relevant pharmacokinetic parameters to generate data on the PK properties viz., bioavailability, half-life (b1/2), volume of distribution, Cmax, Tmax, AUC and elimination rate constant of LA1 in Beagle dog.
LA1 was a coarse material which was micronized using laboratory scale ball mill. […] The micronized LA1 was recovered, weighed and stored in glass container at room temperature. For intravenous drug administration, LA1 excipient compatibility assay for dosing in dogs were carried out.
In brief, a known amount of LA1 was loaded to a cylindrical capped container made of stainless steel followed by addition of stainless steel balls. The ball mills were rotated on their axis for total of 60 minutes (6 cycles X 10 minutes). The micronized LA1 was recovered, weighed and stored in glass bottle at room temperature.
Test system: Healthy Beagle dog weighing 10-12 kg (age 10 months), males were used for the study. Crossover design was adopted for the experiments wherein 02 dogs were used in the study for oral and intravenous administration. Both the animals were housed stainless steel cage provided with a hopper to hold pellet feed and a separate water hopper. Temperature and humidity was maintained at 22±3° C. and 40-70%, respectively. The illumination was controlled to give a sequence of 12 h light and 12 h dark cycle. All the animals were adapted to the experimental conditions for at least 5 days prior to dosing. All animals were provided with Pedigree™ standard pellet feed, except for 10 to 12 h before treatment and 4 h after the drug administration. Water was provided ad libidum.
Formulation and drug administration: Exactly 90 mg of the test item LA1 (micronized powder) was weighed and transferred to a mortar and briefly triturated with pestle. Small volume of vehicle [0.5% (w/v) Carboxy methyl cellulose with 0.1% Tween-80] in water was then added slowly with continuous trituration until a uniform suspension was obtained. The content was then transferred into the measuring cylinder. The mortar was rinsed till the complete transfer of test item into the measuring cylinder was ensured. The final volume was then made up to 225 mL with vehicle to get a uniform suspension with desired concentration of 0.4 mg/mL. Dosing formulations were given by oral gavage at a dose volume not exceeding 5 mL/kg.
Intravenous drug formulation: Hemolysis assay using dog whole blood was employed to assess the damage of red blood cells for selection of excipient for intravenous dosing. […] Exactly 22.5 mg of the test item (micronized powder) was weighed into a graduated tube. 2.25 mL of DMSO was added drop wise and mixed by vortex. Then, 40.50 mL of Polyethylene glycol 400 (PEG-400) was added in two to three fragments and vortex intermittently. Then 2.25 mL Ethanol was added drop wise and vortex to get clear solution. The formulation was subjected to ultra-sonication for 5 minutes.
Sample collection: Serial method was used for blood sampling. Blood samples were collected as mentioned in the study design section (7). The blood sample (−1.5 mL) was collected from saphenous vein into labeled tubes, containing 2% w/v K2EDTA solution, as an anticoagulant.

[2] abbreviates: after slurrying in water 4-5 days.

For `O=C(O)c1ccc(-c2ccc(/C=C3\SC(=S)N(Cc4ccccc4)C3=O)o2)cc1` [LA1 choline salt], in data set [1] (setting [2]), the Appearance result is “Darker red color” and the “Soln pH” value is recorded as 8. The “HPLC purity (%)” value in data set [1] (after slurrying in water 4-5 days (chemical stability)) amounted to 75.51%. Moreover, the “Aq solub” value in data set [1] (listed as choline) amounted to 7.052 mg/mL. The “Aq solub” value in data set [1] (listed as choline salt) worked out at 7.1 mg/mL.

In the case of `O=C(O)c1ccc(-c2ccc(/C=C3\SC(=S)N(Cc4ccccc4)C3=O)o2)cc1` [LA1, (Z)-4-(5-((3-benzyl-4-oxo-2-thioxothiazolidin-5-ylidene)methyl)furan-2-yl)benzoic acid], in the data set “in vivo”, the “Dog Cl” value amounted to 2.1 mL/min/kg and the “Dog F % (absolute oral bioavailability)” value was determined as 50%. In addition, in the data set “in vivo” (dog, po, 2 mg/kg), the AUC worked out at 6.1 µM·h and the time to peak (Tmax) amounted to 4 h. Also, the AUC0-t in the data set “in vivo” (dog, po, 2 mg/kg, AUC0-12) was determined as 2570 ng·h/mL. Further, in the data set “in vivo” (dog, po, 2 mg/kg, Cmax (peak concentration)), the Cmax stood at 685 ng/mL. This compound showed a half-life in “in vivo” (dog, po, 2 mg/kg, t1/2 (hr), oral half-life) of approximately 120 min.
